Test results: US20240327353A1
Read-outs that look alike come from different tables or passages of the source. Values belong to the compound of their own block, whether it stands above or below them.

Key:
5-HT2CR [1] = biological target: T1, 5-HT2CR (Homo sapiens, UniProt P28335); assay: Radioligand binding (competitive displacement and saturation), cell membranes
T1 sequence (P28335 33-458): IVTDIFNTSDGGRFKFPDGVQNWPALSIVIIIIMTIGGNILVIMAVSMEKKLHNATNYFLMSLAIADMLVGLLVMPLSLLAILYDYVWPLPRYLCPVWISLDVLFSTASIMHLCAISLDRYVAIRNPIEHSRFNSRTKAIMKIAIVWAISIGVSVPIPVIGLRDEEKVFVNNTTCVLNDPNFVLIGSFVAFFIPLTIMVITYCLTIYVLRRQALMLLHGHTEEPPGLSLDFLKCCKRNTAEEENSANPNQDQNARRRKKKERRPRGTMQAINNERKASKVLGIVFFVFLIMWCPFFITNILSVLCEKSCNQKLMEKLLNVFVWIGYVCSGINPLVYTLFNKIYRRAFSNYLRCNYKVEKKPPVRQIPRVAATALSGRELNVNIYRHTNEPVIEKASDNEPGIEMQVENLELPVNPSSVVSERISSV

H1R = biological target: T2, H1R (Homo sapiens, UniProt P35367); assay: as above
T2 construct: host or cells: CHO, transient
T2 sequence (P35367 whole entry): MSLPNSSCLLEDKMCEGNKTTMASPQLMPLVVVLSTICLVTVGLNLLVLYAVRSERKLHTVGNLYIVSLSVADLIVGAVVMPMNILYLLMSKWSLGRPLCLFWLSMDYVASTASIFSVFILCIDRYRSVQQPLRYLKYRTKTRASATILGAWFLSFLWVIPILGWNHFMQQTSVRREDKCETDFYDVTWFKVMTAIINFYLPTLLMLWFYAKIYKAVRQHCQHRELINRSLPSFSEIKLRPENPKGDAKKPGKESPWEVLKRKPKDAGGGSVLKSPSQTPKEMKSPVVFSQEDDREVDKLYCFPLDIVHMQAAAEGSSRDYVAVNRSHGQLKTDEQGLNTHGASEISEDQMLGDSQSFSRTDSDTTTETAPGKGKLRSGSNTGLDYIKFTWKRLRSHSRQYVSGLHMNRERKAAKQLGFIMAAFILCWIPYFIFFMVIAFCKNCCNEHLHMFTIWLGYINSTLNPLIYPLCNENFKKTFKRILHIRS
Method: (§1) Transfections were performed for 48 hours.

5-HT2AR = biological target: T3, 5-HT2AR (Homo sapiens, UniProt P28223); assay: as above; conditions: for Ki: pKi 5-HT2AR
T3 construct: host or cells: HEK293, transient
T3 sequence (P28223 whole entry): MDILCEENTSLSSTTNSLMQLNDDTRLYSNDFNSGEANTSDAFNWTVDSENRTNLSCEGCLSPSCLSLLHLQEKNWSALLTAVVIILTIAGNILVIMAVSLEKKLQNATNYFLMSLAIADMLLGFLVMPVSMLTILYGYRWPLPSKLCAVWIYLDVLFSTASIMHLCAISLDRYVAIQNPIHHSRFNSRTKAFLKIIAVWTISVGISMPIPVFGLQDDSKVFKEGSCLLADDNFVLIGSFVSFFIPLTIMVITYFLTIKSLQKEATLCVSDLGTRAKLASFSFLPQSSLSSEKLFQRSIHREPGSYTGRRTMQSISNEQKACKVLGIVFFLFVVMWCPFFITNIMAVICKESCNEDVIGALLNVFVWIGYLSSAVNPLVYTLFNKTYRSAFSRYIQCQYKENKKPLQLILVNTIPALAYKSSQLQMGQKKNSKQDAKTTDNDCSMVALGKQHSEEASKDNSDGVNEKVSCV
Method: as §1

5-HT2BR [2] = biological target: T4, 5-HT2BR (Homo sapiens, UniProt P41595); assay: as above
T4 sequence (P41595 whole entry): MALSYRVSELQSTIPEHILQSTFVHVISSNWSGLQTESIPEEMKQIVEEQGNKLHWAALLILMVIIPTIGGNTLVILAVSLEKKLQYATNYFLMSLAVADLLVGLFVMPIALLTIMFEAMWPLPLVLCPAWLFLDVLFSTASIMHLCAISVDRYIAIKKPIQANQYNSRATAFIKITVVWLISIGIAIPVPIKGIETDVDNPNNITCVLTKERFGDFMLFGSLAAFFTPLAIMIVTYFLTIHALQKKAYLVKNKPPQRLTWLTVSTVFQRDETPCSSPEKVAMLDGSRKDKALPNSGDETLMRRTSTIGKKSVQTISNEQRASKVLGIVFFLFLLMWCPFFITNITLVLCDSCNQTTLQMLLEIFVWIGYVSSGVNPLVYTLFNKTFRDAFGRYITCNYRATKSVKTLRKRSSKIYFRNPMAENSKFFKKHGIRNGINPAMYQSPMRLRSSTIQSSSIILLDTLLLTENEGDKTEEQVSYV

5-HT2CR [3] = biological target: T1, 5-HT2CR; assay: biochemical
5-HT2BR [4] = biological target: T4, 5-HT2BR; assay: biochemical
human wild-type 5-HT2C = human wild-type 5-HT2C (Homo sapiens, UniProt P28335); assay: IP-One HTRF IP1 accumulation assay
5-HT2CR [5] = biological target: T1, 5-HT2CR
5-HT2BR [6] = biological target: T4, 5-HT2BR
C322K^6.34 5-HT2AR = biological target: T5, C322K^6.34 5-HT2AR (Homo sapiens, UniProt P28223, C322K); assay: IP1 accumulation assay, inverse agonism at constitutively activated receptor; format: cell-based
T5 construct: expressed in transfected cells; host or cells: clonal cells
T5 sequence (P28223 whole entry C322K): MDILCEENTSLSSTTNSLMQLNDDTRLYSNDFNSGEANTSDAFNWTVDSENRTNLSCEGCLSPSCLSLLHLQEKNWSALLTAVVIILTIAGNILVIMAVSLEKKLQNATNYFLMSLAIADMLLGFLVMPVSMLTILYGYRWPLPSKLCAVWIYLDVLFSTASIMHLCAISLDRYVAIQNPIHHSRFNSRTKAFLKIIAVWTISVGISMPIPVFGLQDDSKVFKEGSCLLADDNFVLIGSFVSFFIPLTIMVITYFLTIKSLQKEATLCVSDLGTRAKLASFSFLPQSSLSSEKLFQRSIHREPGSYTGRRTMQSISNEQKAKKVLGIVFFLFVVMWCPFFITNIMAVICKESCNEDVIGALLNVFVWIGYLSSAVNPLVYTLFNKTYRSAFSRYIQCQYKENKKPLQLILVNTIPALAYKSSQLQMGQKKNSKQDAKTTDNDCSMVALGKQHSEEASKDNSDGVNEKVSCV
Method: as §1

5-HT7 = 5-HT7 (Homo sapiens, UniProt P34969); assay: Radioligand binding, cell membranes; conditions: [^3H]5-CT; mean of n independent experiments
Chain of 5-HT7 (P34969 1-445 isoform P34969-2): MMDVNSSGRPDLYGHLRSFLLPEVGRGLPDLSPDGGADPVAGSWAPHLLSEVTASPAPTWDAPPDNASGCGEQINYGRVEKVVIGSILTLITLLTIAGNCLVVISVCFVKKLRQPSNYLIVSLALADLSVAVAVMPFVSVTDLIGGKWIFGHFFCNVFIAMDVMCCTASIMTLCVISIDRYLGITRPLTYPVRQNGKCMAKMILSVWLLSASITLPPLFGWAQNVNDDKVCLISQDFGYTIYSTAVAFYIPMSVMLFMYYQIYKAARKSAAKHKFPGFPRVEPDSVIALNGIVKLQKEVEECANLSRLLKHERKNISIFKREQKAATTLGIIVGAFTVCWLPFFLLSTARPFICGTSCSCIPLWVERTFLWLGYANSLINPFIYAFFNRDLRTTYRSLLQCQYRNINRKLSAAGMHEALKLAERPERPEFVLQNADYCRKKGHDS
Method: as §1

D2L = D2L (Homo sapiens, UniProt P14416); assay: Radioligand binding, cell membranes; conditions: [^3H]spiperone; mean of n independent experiments
Chain of D2L (P14416 whole entry): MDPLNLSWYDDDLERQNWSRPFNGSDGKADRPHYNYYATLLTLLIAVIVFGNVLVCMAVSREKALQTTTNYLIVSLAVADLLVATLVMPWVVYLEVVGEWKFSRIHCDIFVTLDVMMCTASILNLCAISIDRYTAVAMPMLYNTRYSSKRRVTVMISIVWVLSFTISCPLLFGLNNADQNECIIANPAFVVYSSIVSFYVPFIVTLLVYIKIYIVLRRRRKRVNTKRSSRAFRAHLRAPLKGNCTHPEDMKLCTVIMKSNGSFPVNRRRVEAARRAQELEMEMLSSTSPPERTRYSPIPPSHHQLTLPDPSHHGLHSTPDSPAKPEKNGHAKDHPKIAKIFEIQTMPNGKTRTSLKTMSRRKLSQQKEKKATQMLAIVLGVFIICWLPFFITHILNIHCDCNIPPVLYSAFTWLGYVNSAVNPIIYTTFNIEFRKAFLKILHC
Method: as §1

5-HT1A = biological target: T6, 5-HT1A (Homo sapiens, UniProt P08908); assay: Radioligand binding, cell membranes; conditions: [^3H]5-CT; mean of n independent experiments
T6 construct: host or cells: HEK293T, transient
T6 sequence (P08908 1-422): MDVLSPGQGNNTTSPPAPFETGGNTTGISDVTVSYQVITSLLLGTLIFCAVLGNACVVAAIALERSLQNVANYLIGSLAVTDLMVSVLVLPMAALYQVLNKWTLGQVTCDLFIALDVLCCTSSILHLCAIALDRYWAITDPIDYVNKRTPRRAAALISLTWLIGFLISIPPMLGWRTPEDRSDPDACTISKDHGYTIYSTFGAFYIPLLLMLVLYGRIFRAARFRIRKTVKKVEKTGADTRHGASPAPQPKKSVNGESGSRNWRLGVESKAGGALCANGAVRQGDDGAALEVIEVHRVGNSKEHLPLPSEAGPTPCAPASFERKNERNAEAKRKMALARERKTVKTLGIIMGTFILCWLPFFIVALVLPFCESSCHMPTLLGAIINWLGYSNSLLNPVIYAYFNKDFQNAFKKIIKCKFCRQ
Method: as §1

D3 = D3 (Homo sapiens, UniProt P35462); assay: Radioligand binding, cell membranes
Chain of D3 (P35462 whole entry): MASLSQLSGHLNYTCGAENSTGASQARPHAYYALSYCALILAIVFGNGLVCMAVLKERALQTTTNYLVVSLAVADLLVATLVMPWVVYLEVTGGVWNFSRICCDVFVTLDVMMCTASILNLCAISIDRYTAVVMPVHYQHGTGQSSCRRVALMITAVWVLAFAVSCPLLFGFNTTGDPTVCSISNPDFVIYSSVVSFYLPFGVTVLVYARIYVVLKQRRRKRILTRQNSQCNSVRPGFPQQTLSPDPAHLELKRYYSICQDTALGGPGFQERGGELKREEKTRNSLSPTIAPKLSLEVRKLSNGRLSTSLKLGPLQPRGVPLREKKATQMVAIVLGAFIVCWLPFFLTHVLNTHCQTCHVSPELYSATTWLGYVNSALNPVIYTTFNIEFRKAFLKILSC
Method: as §1

male C57BL/6J mice [7] = assay: (±)-DOI-elicited head twitch response; conditions: 1 mg*kg^−1 (±)-DOI s.c.; pretreatment s.c.; every dose tested (PIMA, (2S,4R)-2k 0.3 or 3 mg kg^−1; (2R,4R)-3h 3.0 or 5.6 mg kg^−1)
human wild-type 5-HT2B = human wild-type 5-HT2B (Homo sapiens, UniProt P41595); assay: IP-One HTRF IP1 accumulation assay
Chain of human wild-type 5-HT2B (P41595 whole entry): as the sequence (P41595 whole entry) above

male C57BL/6J mice [8] = assay: Locomotor activity, compound alone (open field); format: in vivo; conditions: 3 mg*kg^−1 s.c. (FIG. 3C)
α1A-adrenergic receptor = biological target: T7, α1A-adrenergic receptor (Homo sapiens, UniProt P35348)
T7 sequence (P35348 1-466): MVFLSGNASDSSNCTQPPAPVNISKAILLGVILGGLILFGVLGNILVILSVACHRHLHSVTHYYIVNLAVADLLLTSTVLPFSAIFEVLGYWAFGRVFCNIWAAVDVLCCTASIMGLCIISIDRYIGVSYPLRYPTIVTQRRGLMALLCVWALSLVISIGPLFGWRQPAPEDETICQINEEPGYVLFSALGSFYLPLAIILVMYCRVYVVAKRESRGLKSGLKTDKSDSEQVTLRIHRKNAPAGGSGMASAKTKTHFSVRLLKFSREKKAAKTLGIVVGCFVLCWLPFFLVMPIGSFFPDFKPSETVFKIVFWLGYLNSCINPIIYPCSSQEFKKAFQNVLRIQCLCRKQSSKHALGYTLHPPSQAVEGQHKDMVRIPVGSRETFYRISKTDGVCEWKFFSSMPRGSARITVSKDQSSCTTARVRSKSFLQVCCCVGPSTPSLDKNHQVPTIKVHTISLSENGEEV

α1B-adrenergic receptor = biological target: T8, α1B-adrenergic receptor (Homo sapiens, UniProt P35368)
T8 sequence (P35368 1-520): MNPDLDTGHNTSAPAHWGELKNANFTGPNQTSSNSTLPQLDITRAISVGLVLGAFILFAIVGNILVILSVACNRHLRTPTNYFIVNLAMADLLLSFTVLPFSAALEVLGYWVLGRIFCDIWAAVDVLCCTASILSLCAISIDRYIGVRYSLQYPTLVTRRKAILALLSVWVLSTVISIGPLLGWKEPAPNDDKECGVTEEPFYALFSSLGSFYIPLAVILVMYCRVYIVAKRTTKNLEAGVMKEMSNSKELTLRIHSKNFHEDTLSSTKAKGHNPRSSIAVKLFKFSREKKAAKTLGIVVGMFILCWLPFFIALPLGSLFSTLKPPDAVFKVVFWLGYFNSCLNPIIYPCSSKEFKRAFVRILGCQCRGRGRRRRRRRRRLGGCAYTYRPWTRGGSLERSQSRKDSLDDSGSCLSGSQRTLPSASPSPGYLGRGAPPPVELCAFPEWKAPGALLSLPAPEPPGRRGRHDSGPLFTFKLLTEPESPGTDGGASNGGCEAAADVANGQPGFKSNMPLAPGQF

D231F^5.35 5-HT2AR = D231F^5.35 5-HT2AR (Homo sapiens, UniProt P28223, D231F); assay: Exploratory saturation radioligand binding at point-mutated 5-HT2AR; conditions: membranes of transfected HEK293 cells (FIGS. 14A-14D)
Chain of D231F^5.35 5-HT2AR (P28223 whole entry D231F): as the sequence (P28223 whole entry C322K) above, with D231F, K322C counted along it

[9] = displacement of [^3H]ketanserin, mean of n independent experiments, ± SD where n ≥ 5

Compound: CN(C)[C@@H]1Cc2ccccc2[C@H](c2cccc(-c3ccncc3)c2)C1 (single isomer, unassigned) [(2R,4R)-3e, Cis-4-(3-(pyridin-4-yl)phenyl)-N,N-dimethyl-1,2,3,4-tetrahydronaphthalen-2-amine]
pKi 5-HT2CR (5-HT2CR [1]): 5.90^(2) 5.99-5.80 7.37^(3) 7.44-7.27 5.61^(2) 5.69-5.54 6.26^(2) 6.42-6.10
Ki (H1R; pKi H1R, displacement of [^3H]mepyramine, mean of n independent experiments, ± SD where n ≥ 5): 22.4 nM
Ki (5-HT2AR; [9]): 43.7 nM

Compound: CN(C)[C@@H]1Cc2ccccc2[C@H](c2cccc(-c3ccccc3F)c2)C1 (single isomer, unassigned) [(2R,4R)-3g, Cis-4-(2′-fluoro-[1,1′-biphenyl]-3-yl)-N,N-dimethyl-1,2,3,4-tetrahydronaphthalen-2-amine]
pKi 5-HT2BR (5-HT2BR [2]): 7.36^(2) 7.36-7.35 7.09^(3) 7.23-6.90 6.53^(3) 6.71-6.30 6.33^(2) 6.49-6.17
pKi H1R (H1R): 6.93^(2) 7.02-6.84 8.75^(4) 9.1-8.62 ND 6.54^(2) 6.67-6.40
Ki (5-HT2AR; [9]): 2.04 nM

Compound: CN(C)[C@@H]1Cc2ccccc2[C@@H](c2cccc(-c3ccncc3)c2)C1 (single isomer, unassigned) [(2R,4S)-2e, Trans-4-(3-(pyridin-4-yl)phenyl)-N,N-dimethyl-1,2,3,4-tetrahydronaphthalen-2-amine]
pKi 5-HT2CR (5-HT2CR [1]): 5.90^(2) 5.99-5.80 7.37^(3) 7.44-7.27 5.61^(2) 5.69-5.54 6.26^(2) 6.42-6.10
pKi 5-HT2AR (5-HT2AR): 6.06^(2) 6.14-5.98 8.13^(3) 8.51-7.82 5.81^(2) 6.01-5.62 7.36^(2) 7.48-7.24

Compound: CN(C)[C@@H]1Cc2ccccc2[C@@H](c2cccc(-c3cccs3)c2)C1 (single isomer, unassigned) [(2S,4R)-2c, Trans-4-(3-(thiophen-2-yl)phenyl)-N,N-dimethyl-1,2,3,4-tetrahydronaphthalen-2-amine]
Ki (5-HT2CR [3]): 3.8 nM
Ki (5-HT2BR [4]): 79.4 nM
Ki (5-HT2CR [1]; pKi at the 5-HT2CR, single experiment excluded from the reported data, excluded: excessive or incomplete radioligand displacement): 0.832 nM
IC50 (human wild-type 5-HT2C): 251 nM
inverse agonist efficacy (Imax) at 5-HT2CRs (human wild-type 5-HT2C; below basal): 58%
Ki (H1R; read-out: pKi H1R (converted)): 1.15 nM
Ki (5-HT2AR): 2.14 nM

Compound: CN(C)[C@@H]1Cc2ccccc2[C@H](c2cccc(Br)c2)C1 (single isomer, unassigned) [(2S,4S)-3a, Cis-4-(3-bromophenyl)-N, N-dimethyl-1,2,3,4-tetrahydronaphthalen-2-amine]
Ki (5-HT2BR [4]): 389 nM
pKi 5-HT2CR (5-HT2CR [1]): 6.71^(3) 6.93-6.47 7.24^(4) 7.44-7.06
pKi 5-HT2AR (5-HT2AR): 6.40^(2) 6.41-6.40 7.50^(3) 7.74-7.33

Compound: CN(C)[C@@H]1Cc2ccccc2[C@H](c2cccc(-c3ccncc3)c2)C1 (single isomer, unassigned) [(2S,4S)-3e, Cis-4-(3-(pyridin-4-yl)phenyl)-N,N-dimethyl-1,2,3,4-tetrahydronaphthalen-2-amine]
pKi 5-HT2CR (5-HT2CR [1]): 5.90^(2) 5.99-5.80 7.37^(3) 7.44-7.27 5.61^(2) 5.69-5.54 6.26^(2) 6.42-6.10
pKi 5-HT2AR (5-HT2AR): 6.06^(2) 6.14-5.98 8.13^(3) 8.51-7.82 5.81^(2) 6.01-5.62 7.36^(2) 7.48-7.24

Compound: CN(C)[C@H]1Cc2ccccc2[C@H](c2cccc(-c3cccs3)c2)C1 [(2R,4S)-2c, (2R,4S)-trans-4-(3-(thiophen-2-yl)phenyl)-N,N-dimethyl-1,2,3,4-tetrahydronaphthalen-2-amine]
Ki (5-HT2CR [5]): 33.1 nM
agonist activity at 5-HT2CRs, concentration-response (human wild-type 5-HT2C; FIG. 7B): no consistent effect on IP1-accumulation
Ki (5-HT2BR [6]): 214 nM
pKi H1R (H1R): 6.90
Ki (5-HT2AR): 19.5 nM

Compound: CN(C)c1ccc(-c2cccc([C@H]3C[C@H](N(C)C)Cc4ccccc43)c2)cc1 [(2S,4R)-2k, Trans-4-(4′-(dimethylamino)-[1,1′-biphenyl]-3-yl)-N,N-dimethyl-1,2,3,4-tetra-hydronaph-thalen-2-amine]
inverse agonist efficacy at C322K^6.34 5-HT2ARs (reduction of basal IP1 accumulation) (C322K^6.34 5-HT2AR): ~60%
pKi 5-HT7 (5-HT7): 6.28^(3)
pKi D2L (D2L): 5.70^(3)
pKi 5-HT1A (5-HT1A): 5.58^(3)
pKi D3 (D3): 6.92^(3)
head twitch response elicited by (±)-DOI (male C57BL/6J mice [7]): significantly attenuated the head twitch response
Ki (5-HT2BR [2]; pKi at the 5-HT2BR, single experiment excluded from the reported data, excluded: excessive or incomplete radioligand displacement): 47.9 nM
pKb at 5-HT2BRs (human wild-type 5-HT2B): 5.59±0.50
partial agonist efficacy at 5-HT2BRs, exploratory screening (human wild-type 5-HT2B; 10 μM ligand, change from basal IP1 normalized to 5-HT (FIG. 2A)): ~13 % 5-HT
agonist activity at 5-HT2BRs, full concentration-response (human wild-type 5-HT2B; FIG. 7A): did not reach statistical significance
inverse agonist efficacy (Imax) at 5-HT2CRs (human wild-type 5-HT2C): ~75%
locomotor activity, compound administered alone (male C57BL/6J mice [8]): preserving general locomotor ability
Ki (α1A-adrenergic receptor): 617 nM
Ki (5-HT2BR [6]): 79.4 nM
Ki (α1B-adrenergic receptor): 646 nM

Ki (5-HT2CR [5]): 151 nM
Ki (5-HT2BR [6]): 407 nM
Compound: CN(C)[C@@H]1Cc2ccccc2[C@H](c2cccc(-c3ccccc3)c2)C1 [(2S,4S)-3f, (2S,4S)-cis-4-([1,1′-biphenyl]-3-yl)-N,N-dimethyl-1,2,3,4-tetrahydronaphthalen-2-amine]

Compound: O=C(CCCN1CCC2(CC1)C(=O)NCN2c1ccccc1)c1ccc(F)cc1 [[^3H]Spiperone]
specific binding to D231F^5.35 5-HT2ARs (D231F^5.35 5-HT2AR): no specific binding is detected
